Assay results from US20260256792A1, “TREATMENT OF CHRONIC SPONTANEOUS URTICARIA BY ADMINISTERING (R)-2-[3-[4-AMINO-3-(2-FLUORO-4-PHENOXY-PHENYL)PYRAZOLO[3,4-D]PYRIMIDIN-1-YL]PIPERIDINE-1-CARBONYL]-4-METHYL-4-[4-(OXETAN-3-YL)PIPERAZIN-1-YL]PENT-2-ENENITRILE” (priority 2023, published 2026).

Test system: moderate-to-severe chronic spontaneous urticaria (CSU)
Test: Phase 2 CSU study: itch severity score over 7 days (ISS7)
Format: in vivo, human
From the text: The study comprises a 12 week, randomized, double-blind, placebo-controlled, multi-center, dose-ranging efficacy and safety phase, followed by a 40 week open label extension (OLE) phase (see FIG. 1). The study consists of three phases and an optional OLE phase. […] Clinically, CSU is characterized by the spontaneous and recurrent appearance of pruritic hives. The proposed primary endpoints were the UAS7 at Week 12 in EU and EU reference countries and the ISS7 in the US. Regardless of where a participant was from, all assessments were the same. The UAS7 score is a composite score containing both the HSS7 and the ISS7. This allowed a global assessment of the two key components of urticaria: hives and itch. […] The UAS is a validated PRO measure. […] The daily UAS scores range from 0 to 6 point/day. […] Patients were to complete the UAS using the e-diary. […] The following secondary endpoints were to be analyzed using the same approach as for the primary endpoint: • Change from baseline in UAS7 at Week 4 • Change from baseline in UAS7 at Week 12 (for US and US reference countries) • Change from baseline in ISS7 at Week 12 (except US and US reference countries) • Change from baseline in HSS7 at Week 12

[1] = Week 10, 400 mg QPM, Omalizumab-Naïve
[2] = Week 10, 400 mg QPM, Prior Omalizumab Use
[3] = Week 10, 400 mg TID, Omalizumab-Naïve
[4] = Week 10, 400 mg TID, Prior Omalizumab Use
[5] = Week 11, 400 mg BID, Omalizumab-Naïve
[6] = Week 11, 400 mg BID, Prior Omalizumab Use
[7] = Week 11, 400 mg QPM, Omalizumab-Naïve
[8] = Week 11, 400 mg QPM, Prior Omalizumab Use
[9] = Week 11, 400 mg TID, Omalizumab-Naïve
[10] = Week 11, 400 mg TID, Prior Omalizumab Use
[11] = Week 12, 400 mg BID, Omalizumab-Naïve
[12] = Week 12, 400 mg BID, Prior Omalizumab Use
[13] = Week 12, 400 mg QPM, Omalizumab-Naïve
[14] = Week 12, 400 mg QPM, Prior Omalizumab Use
[15] = Week 12, 400 mg TID, Omalizumab-Naïve
[16] = Week 12, 400 mg TID, Prior Omalizumab Use

Structure (SMILES): CC(C)(C=C(C#N)C(=O)N1CCC[C@@H](n2nc(-c3ccc(Oc4ccccc4)cc3F)c3c(N)ncnc32)C1)N1CCN(C2COC2)CC1 [rilzabrutinib, (R)-2-[3-[4-amino-3-(2-fluoro-4-phenoxy-phenyl)pyrazolo[3,4-d]pyrimidin-1-yl]piperidine-1-carbonyl]-4-methyl-4-[4-(oxetan-3-yl)piperazin-1-yl]pent-2-enenitrile]
- ISS7 Change from baseline Median [1]: −6.00
- ISS7 Mean (SD) [1]: 10.43 (5.30)
- ISS7 Median [1]: 9.50
- ISS7 Percent change from baseline Mean (SD) [1]: −37.25 (29.62) %
- ISS7 Percent change from baseline Median [1]: −39.23%
- ISS7 Change from baseline Mean (SD) [2]: −13.00 (NC)
- ISS7 Change from baseline Median [2]: −13.00
- ISS7 Mean (SD) [2]: 8.00 (NC)
- ISS7 Median [2]: 8.00
- ISS7 Percent change from baseline Mean (SD) [2]: −61.90 (NC) %
- ISS7 Percent change from baseline Median [2]: −61.90%
- ISS7 Change from baseline Mean (SD) [3]: −9.55 (5.37)
- ISS7 Change from baseline Median [3]: −10.00
- ISS7 Mean (SD) [3]: 6.75 (5.25)
- ISS7 Median [3]: 7.00
- ISS7 Percent change from baseline Mean (SD) [3]: −58.27 (30.87) %
- ISS7 Percent change from baseline Median [3]: −57.19%
- ISS7 Change from baseline Mean (SD) [4]: −12.17 (8.26)
- ISS7 Change from baseline Median [4]: −13.00
- ISS7 Mean (SD) [4]: 4.83 (6.85)
- ISS7 Median [4]: 3.00
- ISS7 Percent change from baseline Mean (SD) [4]: −68.55 (36.38) %
- ISS7 Percent change from baseline Median [4]: −79.76%
- ISS7 Change from baseline Mean (SD) [5]: −7.51 (6.18)
- ISS7 Change from baseline Median [5]: −8.00
- ISS7 Mean (SD) [5]: 7.93 (6.94)
- ISS7 Median [5]: 7.00
- ISS7 Percent change from baseline Mean (SD) [5]: −49.75 (40.18) %
- ISS7 Percent change from baseline Median [5]: −57.14%
- ISS7 Change from baseline Mean (SD) [6]: −10.43 (9.36)
- ISS7 Change from baseline Median [6]: −13.00
- ISS7 Mean (SD) [6]: 6.77 (8.14)
- ISS7 Median [6]: 2.00
- ISS7 Percent change from baseline Mean (SD) [6]: −58.05 (49.51) %
- ISS7 Percent change from baseline Median [6]: −86.67%
- ISS7 Change from baseline Mean (SD) [7]: −6.07 (4.83)
- ISS7 Change from baseline Median [7]: −6.00
- ISS7 Mean (SD) [7]: 11.03 (5.55)
- ISS7 Percent change from baseline Mean (SD) [7]: −36.12 (28.12) %
- ISS7 Percent change from baseline Median [7]: −30.00%
- ISS7 Change from baseline Mean (SD) [8]: −12.00 (NC)
- ISS7 Change from baseline Median [8]: −12.00
- ISS7 Mean (SD) [8]: 9.00 (NC)
- ISS7 Median [8]: 9.00
- ISS7 Percent change from baseline Mean (SD) [8]: −57.14 (NC) %
- ISS7 Percent change from baseline Median [8]: −57.14%
- ISS7 Change from baseline Mean (SD) [9]: −9.23 (5.92)
- ISS7 Change from baseline Median [9]: −9.00
- ISS7 Mean (SD) [9]: 6.99 (5.53)
- ISS7 Median [9]: 7.00
- ISS7 Percent change from baseline Mean (SD) [9]: −56.08 (33.60) %
- ISS7 Percent change from baseline Median [9]: −60.00%
- ISS7 Change from baseline Mean (SD) [10]: −12.58 (8.36)
- ISS7 Change from baseline Median [10]: −13.75
- ISS7 Mean (SD) [10]: 4.42 (6.99)
- ISS7 Median [10]: 1.75
- ISS7 Percent change from baseline Mean (SD) [10]: −71.13 (37.09) %
- ISS7 Percent change from baseline Median [10]: −87.50%
- ISS7 Change from baseline Mean (SD) [11]: −7.40 (6.12)
- ISS7 Change from baseline Median [11]: −7.00
- ISS7 Mean (SD) [11]: 8.09 (6.95)
- ISS7 Median [11]: 7.00
- ISS7 Percent change from baseline Mean (SD) [11]: −49.06 (38.85) %
- ISS7 Percent change from baseline Median [11]: −45.00%
- ISS7 Change from baseline Mean (SD) [12]: −13.50 (9.33)
- ISS7 Change from baseline Median [12]: −16.50
- ISS7 Mean (SD) [12]: 4.50 (9.00)
- ISS7 Median [12]: 0.00
- ISS7 Percent change from baseline Mean (SD) [12]: −75.00 (50.00) %
- ISS7 Percent change from baseline Median [12]: −100.00%
- ISS7 Change from baseline Mean (SD) [13]: −5.69 (4.72)
- ISS7 Change from baseline Median [13]: −5.33
- ISS7 Median [13]: 11.60
- ISS7 Percent change from baseline Mean (SD) [13]: −33.81 (26.94) %
- ISS7 Percent change from baseline Median [13]: −32.64%
- ISS7 Change from baseline Mean (SD) [14]: −14.00 (NC)
- ISS7 Change from baseline Median [14]: −14.00
- ISS7 Mean (SD) [14]: 7.00 (NC)
- ISS7 Median [14]: 7.00
- ISS7 Change from baseline Mean (SD) [15]: −10.27 (6.02)
- ISS7 Change from baseline Median [15]: −10.33
- ISS7 Mean (SD) [15]: 5.77 (5.26)
- ISS7 Median [15]: 7.00
- ISS7 Percent change from baseline Mean (SD) [15]: −62.66 (31.72) %
- ISS7 Percent change from baseline Median [15]: −57.19%
- ISS7 Change from baseline Mean (SD) [16]: −13.00 (9.27)
- ISS7 Change from baseline Median [16]: −17.00
- ISS7 Mean (SD) [16]: 4.60 (7.80)
- ISS7 Median [16]: 0.00
- ISS7 Percent change from baseline Mean (SD) [16]: −70.36 (41.41) %
- ISS7 Percent change from baseline Median [16]: −100.00%
